Test results as given in EP0643053A1, “Process for the manufacture of phenoxyphenoxyalkyl derivatives” (CIBA-GEIGY AG, priority 1993, dated 1995).

Assays:
Format in all cases: in vivo
[1] = test system: Adoxophyes reticulana eggs; test: Activity against Adoxophyes reticulana (ovicidal), egg immersion test; conditions: 144 h; 400 ppm of active ingredient in acetone/water; eggs on filter paper immersed; after 6 days; vs untreated control; isomer ratios A, B and C used; read-out: activity (% reduction in hatching rate)
Excerpt: (§1) The active ingredient is used, in each case, in three different isomer ratios A, B and C: A = 37.8 % of 2R,4S-isomer IIIa, 37.8% of 2S,4R-isomer IIIb, 12.2% of 2R,4R-isomer IIIc and 12.2% of 2S,4S-isomer IIId; B = 40.2% of 2R,4S-isomer IIIa, 40.2% of 2S,4R-isomer IIIb, 9.8% of 2R,4R-isomer IIIc and 9.8% of 2S,4S-isomer IIId; and C = 36.7% of 2R,4S-isomer IIIa, 36.7% of 2S,4R-isomer IIIb, 13.3% of 2R,4R-isomer IIIc and 13.3% of 2S,4S-isomer IIId. Example B1: Activity against Adoxophyes reticulana (ovicidal) Adoxophyes reticulana eggs which have been deposited on filter paper are briefly immersed into a test solution of 400 ppm of active ingredient in acetone/water. After the test solution has dried on, the eggs are incubated in Petri dishes. After 6 days, the percentage hatching rate of the eggs is evaluated by comparison with untreated control batches (% reduction in hatching rate). In this test, the compound of the formula III has an activity of over 80%.

[2] = test system: Nilaparvata lugens; test: Activity against Nilaparvata lugens (systemic), rice plants in pots; conditions: 144 h, 10 ppm of active ingredient in aqueous emulsion solution, larvae in the 2nd and 3rd stages, after 6 days, isomer ratios A, B and C used, read-out: percentage reduction in population (% activity)
Excerpt: The active ingredient is used, in each case, in three different isomer ratios A, B and C: A = 37.8 % of 2R,4S-isomer IIIa, 37.8% of 2S,4R-isomer IIIb, 12.2% of 2R,4R-isomer IIIc and 12.2% of 2S,4S-isomer IIId; B = 40.2% of 2R,4S-isomer IIIa, 40.2% of 2S,4R-isomer IIIb, 9.8% of 2R,4R-isomer IIIc and 9.8% of 2S,4S-isomer IIId; and C = 36.7% of 2R,4S-isomer IIIa, 36.7% of 2S,4R-isomer IIIb, 13.3% of 2R,4R-isomer IIIc and 13.3% of 2S,4S-isomer IIId. Example B6: Activity against Nilaparvata lugens (systemic) Pots containing rice plants are placed into an aqueous emulsion solution comprising 10 ppm of active ingredient. The plants are subsequently populated with larvae in the 2nd and 3rd stages. The test is evaluated after 6 days. The percentage reduction in population (% activity) is determined by comparing the number of plant hoppers on the treated and untreated plants. In this test, the compound of the formula III has an activity of over 80%.

[3] = test system: Nilaparvata lugens; test: Activity against Nilaparvata lugens on sprayed rice plants; conditions: 504 h, 400 ppm of active ingredient, larvae in the 2nd and 3rd stages, after 21 days, isomer ratios A, B and C used, read-out: percentage reduction in population (% activity)
Excerpt: The active ingredient is used, in each case, in three different isomer ratios A, B and C: A = 37.8 % of 2R,4S-isomer IIIa, 37.8% of 2S,4R-isomer IIIb, 12.2% of 2R,4R-isomer IIIc and 12.2% of 2S,4S-isomer IIId; B = 40.2% of 2R,4S-isomer IIIa, 40.2% of 2S,4R-isomer IIIb, 9.8% of 2R,4R-isomer IIIc and 9.8% of 2S,4S-isomer IIId; and C = 36.7% of 2R,4S-isomer IIIa, 36.7% of 2S,4R-isomer IIIb, 13.3% of 2R,4R-isomer IIIc and 13.3% of 2S,4S-isomer IIId. Example B5: Activity against Nilaparvata lugens Rice plants are sprayed with an aqueous emulsion spray mixture comprising 400 ppm of active ingredient. After the spray coating has dried on, the plants are populated with plant hopper larvae in the 2nd and 3rd stages. The test is evaluated after 21 days. The percentage reduction in population (% activity) is determined by comparing the number of surviving plant hoppers on the treated and untreated plants. In this test, the compound of the formula III has an activity of over 80%.

[4] = test system: Cydia pomonella eggs; test: Activity against Cydia pomonella (ovicidal), egg immersion test; conditions: 144 h, 400 ppm of active ingredient in acetone/water, eggs on filter paper immersed, after 6 days, vs untreated control, isomer ratios A, B and C used, read-out: activity (% reduction in hatching rate)
Excerpt: as §1, with “B4:” for “B1:”, “Cydia pomonella” for “Adoxophyes reticulana”

[5] = test system: Aonidiella aurantii crawlers; test: Activity against Aonidiella aurantii on potato tubers (immersion); conditions: 400 ppm of active ingredient; potato tubers immersed in aqueous emulsion or suspension spray mixture; after 10 to 12 weeks; isomer ratios A, B and C used
Excerpt: (§2) The active ingredient is used, in each case, in three different isomer ratios A, B and C: A = 37.8 % of 2R,4S-isomer IIIa, 37.8% of 2S,4R-isomer IIIb, 12.2% of 2R,4R-isomer IIIc and 12.2% of 2S,4S-isomer IIId; B = 40.2% of 2R,4S-isomer IIIa, 40.2% of 2S,4R-isomer IIIb, 9.8% of 2R,4R-isomer IIIc and 9.8% of 2S,4S-isomer IIId; and C = 36.7% of 2R,4S-isomer IIIa, 36.7% of 2S,4R-isomer IIIb, 13.3% of 2R,4R-isomer IIIc and 13.3% of 2S,4S-isomer IIId. Example B2: Activity against Aonidiella aurantii Potato tubers are populated with Aonidiella aurantii crawlers. After about 2 weeks, the potatoes are immersed into an aqueous emulsion spray mixture or suspension spray mixture which comprises 400 ppm of active ingredient. After the tubers have dried, they are incubated in a plastic container. To evaluate the experiment after 10 to 12 weeks, the survival rate of the crawlers of the first subsequent generation of the treated population is compared with that of untreated control batches. In this test, the compound of the formula III has an activity of over 80%.

[6] = test system: Aonidiella aurantii crawlers; test: Activity against Aonidiella aurantii on Citrus trifoliata cuttings (spray); conditions: 50 ppm of active ingredient; Citrus trifoliata cuttings sprayed to drip point; after 10 to 12 weeks; isomer ratios A, B and C used
Excerpt: as §2, with “B3:” for “B2:”, “Citrus trifoliata cuttings” for “Potato tubers”, “cuttings” for “potatoes”, “sprayed to drip point with” for “immersed into”, “comprising 50” for “or suspension spray mixture which comprises 400”, “ingredient.” for “ingredient. After the tubers have dried, they are incubated in a plastic container.”

`CCC1OCC(COc2ccc(Oc3ccccc3)cc2)O1` (racemic) [compound of the formula III, 2-ethyl-4-(4-phenoxyphenoxymethyl)-1,3-dioxolane] was tested, and the activity at 400 ppm [1] was > 80%, the activity at 10 ppm [2] was > 80% and the activity at 400 ppm [3] was > 80%. For the same compound, the activity at 400 ppm [4] was > 80%, the “activity (survival rate of the crawlers of the first subsequent generation compared with untreated control)” value [5] was “over 80%” and the “activity (survival rate of the crawlers of the first subsequent generation compared with untreated control)” value [6] was “over 80%”.
